Assay results published in US20240336574A1 (LATIGO BIOTHERAPEUTICS, INC., priority 2021, published 2024).
Where two headings read alike, the source gives them in different places.

Target: T1, recombinant human NaV1.8 stably transfected HEK cells (Homo sapiens, UniProt Q9Y5Y9)
T1 construct: expressed in transfected cells; host or cells: HEK cells, stably transfected
Test: Compound profiling on NaV1.8, human NaV1.8 cell line, SyncroPatch384PE automated patch clamp assay (Example 102, first set of compounds, Table 16)
Assay type: cell-based
Settings: human NaV1.8 HEK cells, Table 16 (first set of compounds)
In short: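 IC50s come from two read-outs: resting-state block (P1, 10 mV step from −120 mV) and inactivated-state block (P2, after 10 s at −40 mV), scaled between DMSO and 250 μM tetracaine. Compounds (20–0.001 μM final, 1:3 steps) were applied for 5 min, 15 s sweeps. Cells kept at 30 °C the day before.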

[1] = inactivated state block (P2 measurement), read-out: P2IC50
[2] = resting state block (P1 measurement), read-out: P1IC50

T1 sequence (Q9Y5Y9 whole entry): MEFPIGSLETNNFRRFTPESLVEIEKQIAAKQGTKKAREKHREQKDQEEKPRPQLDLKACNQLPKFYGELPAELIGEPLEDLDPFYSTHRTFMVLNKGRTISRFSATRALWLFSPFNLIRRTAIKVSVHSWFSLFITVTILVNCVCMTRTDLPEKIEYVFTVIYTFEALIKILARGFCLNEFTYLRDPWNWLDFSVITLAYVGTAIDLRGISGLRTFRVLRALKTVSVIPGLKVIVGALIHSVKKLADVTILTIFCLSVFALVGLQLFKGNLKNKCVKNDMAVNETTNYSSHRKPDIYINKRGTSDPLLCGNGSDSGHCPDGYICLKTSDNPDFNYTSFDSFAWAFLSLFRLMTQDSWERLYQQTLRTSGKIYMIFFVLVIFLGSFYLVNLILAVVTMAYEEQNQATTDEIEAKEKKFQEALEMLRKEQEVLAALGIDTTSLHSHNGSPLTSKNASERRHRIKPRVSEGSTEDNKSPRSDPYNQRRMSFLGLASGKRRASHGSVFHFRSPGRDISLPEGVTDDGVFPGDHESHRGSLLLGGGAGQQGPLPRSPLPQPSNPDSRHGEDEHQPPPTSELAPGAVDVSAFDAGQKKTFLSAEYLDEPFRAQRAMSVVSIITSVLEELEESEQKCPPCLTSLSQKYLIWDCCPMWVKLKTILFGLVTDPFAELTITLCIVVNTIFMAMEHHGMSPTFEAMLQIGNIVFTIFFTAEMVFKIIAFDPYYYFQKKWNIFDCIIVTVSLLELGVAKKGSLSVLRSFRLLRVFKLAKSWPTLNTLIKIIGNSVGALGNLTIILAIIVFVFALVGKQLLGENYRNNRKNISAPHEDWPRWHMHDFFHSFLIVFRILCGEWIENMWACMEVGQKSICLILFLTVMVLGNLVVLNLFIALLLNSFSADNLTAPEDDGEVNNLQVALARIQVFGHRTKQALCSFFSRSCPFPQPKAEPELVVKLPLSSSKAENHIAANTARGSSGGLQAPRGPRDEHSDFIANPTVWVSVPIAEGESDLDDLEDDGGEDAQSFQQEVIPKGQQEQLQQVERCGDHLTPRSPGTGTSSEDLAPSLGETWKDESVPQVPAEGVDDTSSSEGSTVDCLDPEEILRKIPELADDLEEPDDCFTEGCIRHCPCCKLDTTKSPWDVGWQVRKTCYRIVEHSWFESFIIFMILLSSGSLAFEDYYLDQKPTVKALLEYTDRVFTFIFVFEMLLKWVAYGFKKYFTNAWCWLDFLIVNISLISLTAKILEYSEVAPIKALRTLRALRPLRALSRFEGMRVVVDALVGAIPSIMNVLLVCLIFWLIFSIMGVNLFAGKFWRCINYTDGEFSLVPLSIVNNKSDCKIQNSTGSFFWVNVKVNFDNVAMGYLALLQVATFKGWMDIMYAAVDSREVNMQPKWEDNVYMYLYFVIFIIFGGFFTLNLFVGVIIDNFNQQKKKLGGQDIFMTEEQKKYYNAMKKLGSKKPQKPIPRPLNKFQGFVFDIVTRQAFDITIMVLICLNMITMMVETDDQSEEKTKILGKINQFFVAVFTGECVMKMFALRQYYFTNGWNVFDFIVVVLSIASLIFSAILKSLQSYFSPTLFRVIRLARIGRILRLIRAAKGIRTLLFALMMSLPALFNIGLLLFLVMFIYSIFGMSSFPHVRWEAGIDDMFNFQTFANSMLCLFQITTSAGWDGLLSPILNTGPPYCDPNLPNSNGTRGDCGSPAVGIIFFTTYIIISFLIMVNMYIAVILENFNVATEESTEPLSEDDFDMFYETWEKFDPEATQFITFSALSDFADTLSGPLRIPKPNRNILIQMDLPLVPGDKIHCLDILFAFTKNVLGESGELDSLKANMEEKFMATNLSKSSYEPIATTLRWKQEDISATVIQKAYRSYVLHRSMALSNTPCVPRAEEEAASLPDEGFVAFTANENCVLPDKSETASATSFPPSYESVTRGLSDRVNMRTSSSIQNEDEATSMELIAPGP

Row | SMILES | IC50 [1] [nM] | IC50 [2] [nM]
1 | CSc1cccc(Oc2ncc(C(F)(F)F)cc2C(=O)Nc2cccc(S(C)(=O)=O)c2)c1 [Compound 1656] | 40 to 200 | 40 to 200
2 | COc1ncc(-c2nnc(Oc3ccc(C#N)cc3OC)c(C(=O)Nc3cccc(S(C)(=N)=O)c3)c2C)s1 (stereo not shown) [Compound 1461, 3-(4-cyano-2-methoxy-phenoxy)-6-(2-methoxythiazol-5-yl)-5-methyl-N-[3-(methylsulfonimidoyl)phenyl]pyridazine-4-carboxamide; formic acid] | 40 to 200 | 200 to 500
3 | Cc1c(C(F)(F)F)nnc(Oc2ccc(OC3CCC3)c(F)c2F)c1C(=O)Nc1cccc(S(C)(=N)=O)c1 (stereo not shown) [Compound 1492, 3-[4-(cyclobutoxy)-2,3-difluoro-phenoxy]-5-methyl-N-[3-(methylsulfonimidoyl)phenyl]-6-(trifluoromethyl)pyridazine-4-carboxamide] | ≤ 20 | ≤ 20
4 | Cc1cc(C#N)ncc1Oc1ncc(C(F)(F)F)cc1C(=O)Nc1cccc(S(C)(=O)=O)c1 [Compound 1694] | 200 to 500 | 200 to 500
5 | CS(=N)(=O)c1cccc(NC(=O)c2cc(C(F)(F)F)cnc2OC2CC(C(F)(F)F)C2)c1 (mixture of isomers) [Compound 1666] | 40 to 200 | 40 to 200
6 | COc1cc(C#N)ccc1Oc1nc(C(F)(F)F)nc(C)c1C(=O)Nc1cccc(C(N)=O)c1 [Compound 1742, N-(3-carbamoylphenyl)-4-(4-cyano-2-methoxy-phenoxy)-6-methyl-2-(trifluoromethyl)pyrimidine-5-carboxamide] | 20 to 40 | 40 to 200
7 | COc1cc(C#N)ccc1Oc1nnc(C2=CCN(C(C)=O)CC2)c(C)c1C(=O)Nc1cccc(S(C)(=N)=O)c1 (stereo not shown) [Compound 1554, 6-(1-acetyl-3,6-dihydro-2H-pyridin-4-yl)-3-(4-cyano-2-methoxy-phenoxy)-5-methyl-N-[3-(methylsulfonimidoyl)phenyl]pyridazine-4-carboxamide] | 200 to 500 | 200 to 500
8 | COc1c(Oc2nnc3c(c2C(=O)Nc2cccc(C(N)=O)c2)CCC3)ccc(F)c1F [Compound 1417] | 200 to 500 | 200 to 500
9 | CS(=N)(=O)c1cccc(NC(=O)c2cc(C(F)(F)F)cnc2Oc2cnc(C(F)(F)F)nc2)c1 (stereo not shown) [Compound 1696] | 200 to 500 | 200 to 500
10 | Cc1cc(F)ccc1Oc1nnc(C(F)(F)F)c(C)c1C(=O)Nc1cc(C(N)=O)cc(S(C)(=O)=O)c1 [Compound 1407] | 200 to 500 | 200 to 500
11 | Cc1nc(OC2CCC2)ccc1Oc1nnc(C(F)(F)F)c(C)c1C(=O)Nc1cccc(S(C)(=N)=O)c1 (stereo not shown) [Compound 1498, 3-[(6-cyclobutoxy-2-methylpyridin-3-yl)oxy]-N-{3-[imino(methyl)oxo-λ^6-sulfanyl]phenyl}-5-methyl-6-(trifluoromethyl)pyridazine-4-carboxamide] | 40 to 200 | 40 to 200
12 | CS(=O)(=O)c1cccc(NC(=O)c2cc(C(F)(F)F)cnc2Oc2ccc3c(c2)CC(=O)N3)c1 [Compound 1598] | 200 to 500 | 200 to 500
13 | COc1cc(C#N)ccc1Oc1nnc(-c2ccn(C)n2)c(C)c1C(=O)Nc1cccc(S(C)(=N)=O)c1 (stereo not shown) [Compound 1448, 3-(4-cyano-2-methoxy-phenoxy)-5-methyl-6-(1-methylpyrazol-3-yl)-N-[3-(methylsulfonimidoyl)phenyl]pyridazine-4-carboxamide] | 200 to 500 | 200 to 500
14 | Cc1nc(OC2CCC2)ccc1Oc1ncc(C(F)(F)F)cc1C(=O)Nc1cccc(C(N)=O)c1 [Compound 1565, N-(3-carbamoylphenyl)-2-[[6-(cyclobutoxy)-2-methyl-3-pyridyl]oxy]-5-(trifluoromethyl)pyridine-3-carboxamide] | 200 to 500 | 200 to 500
15 | COc1cc(C)c(Oc2ncc(C(F)(F)F)cc2C(=O)Nc2cccc(S(C)(=N)=O)c2)cc1C#N (stereo not shown) [Compound 1621] | 200 to 500 | 200 to 500
16 | Cc1nc(OC2CCC2)ccc1Oc1ncc(C(F)(F)F)cc1C(=O)Nc1cccc(S(C)(=N)=O)c1 (stereo not shown) [Compound 1669] | 40 to 200 | 40 to 200
17 | NC(=O)c1cccc(NC(=O)c2cc(C(F)(F)F)cnc2Oc2ccc(C(F)F)nc2)c1 [Compound 1675] | 200 to 500 | 200 to 500
18 | CS(=N)(=O)c1cccc(NC(=O)c2cc(C(F)(F)F)cnc2Oc2ccc(C(F)(F)F)cc2)c1 (stereo not shown) [Compound 1564, N-[3-(methylsulfonimidoyl)phenyl]-5-(trifluoromethyl)-2-[4-(trifluoromethyl)phenoxy]pyridine-3-carboxamide] | 40 to 200 | 20 to 40
19 | COCCNS(=O)(=O)c1cccc(NC(=O)c2c(Oc3ccc(C#N)cc3OC)nnc(C(F)(F)F)c2C)c1 [Compound 1439, 3-(4-cyano-2-methoxy-phenoxy)-N-[3-(2-methoxyethylsulfamoyl)phenyl]-5-methyl-6-(trifluoromethyl)pyridazine-4-carboxamide] | 40 to 200 | 40 to 200
20 | CS(=O)(=O)c1cccc(NC(=O)c2cc(C(F)(F)F)cnc2Oc2ccc(F)c3cnccc23)c1 [Compound 1583] | 20 to 40 | 20 to 40
21 | Cc1nc(C#N)ccc1Oc1ncc(C(F)(F)F)cc1C(=O)Nc1cccc(C(N)=O)c1 [Compound 1700] | 200 to 500 | 200 to 500
22 | CS(=O)(=O)c1cccc(NC(=O)c2cc(C(F)(F)F)cnc2Oc2ccc(C#N)nc2)c1 [Compound 1703] | 200 to 500 | 200 to 500
23 | COc1c(Oc2ncc(Br)cc2C(=O)Nc2cccc(C(N)=O)c2)ccc(F)c1F [Compound 1680] | 20 to 40 | 20 to 40
24 | Cc1cccc(Cl)c1Oc1nnc(C(F)(F)F)c(C)c1C(=O)Nc1ccc(C(N)=O)cc1 [Compound 1401] | 200 to 500 | 200 to 500
25 | COc1cc(C#N)ccc1Oc1nnc(-c2cncs2)c(C)c1C(=O)Nc1cccc(S(C)(=N)=O)c1 (stereo not shown) [Compound 1460, 3-(4-cyano-2-methoxy-phenoxy)-5-methyl-N-[3-(methylsulfonimidoyl)phenyl]-6-thiazol-5-yl-pyridazine-4-carboxamide] | 200 to 500 | 200 to 500

Second part, the compound after the results:

Row | IC50 [1] [nM] | IC50 [2] [nM] | SMILES
26 | ≤ 20 | ≤ 20 | COc1cc(C#N)ccc1Oc1ncc(Br)cc1C(=O)Nc1cccc(S(C)(=N)=O)c1 (stereo not shown) [Compound 1686]
27 | 20 to 40 | 20 to 40 | CC(C)Oc1ccc(Oc2ncc(C(F)(F)F)cc2C(=O)Nc2ccc(C(N)=O)cc2)c(F)c1F [Compound 1711]
28 | 20 to 40 | 20 to 40 | COc1ccc(-c2nnc(Oc3ccc(C#N)cc3OC)c(C(=O)Nc3cccc([S@](C)(=N)=O)c3)c2C)cc1 [Compound 1535, 3-(4-cyano-2-methoxyphenoxy)-N-{3-[(R)-imino(methyl)oxo-λ^6-sulfanyl]phenyl}-6-(4-methoxyphenyl)-5-methylpyridazine-4-carboxamide]
29 | ≤ 20 | ≤ 20 | CS(=N)(=O)c1cccc(NC(=O)c2cc(C(F)(F)F)cnc2Oc2ccc(Br)cc2C2CC2)c1 (stereo not shown) [Compound 1648]
30 | ≤ 20 | ≤ 20 | Cc1cc(F)ccc1Oc1nnc(C(F)(F)F)c(C)c1C(=O)Nc1cccc(S(N)(=O)=O)c1 [Compound 1466, 3-(4-fluoro-2-methylphenoxy)-5-methyl-N-(3-sulfamoylphenyl)-6-(trifluoromethyl)pyridazine-4-carboxamide]
31 | ≤ 20 | ≤ 20 | CS(=N)(=O)c1cccc(NC(=O)c2cc(C(F)(F)F)cnc2Oc2cccnc2OC(F)(F)F)c1 (stereo not shown) [Compound 1636]
32 | ≤ 20 | ≤ 20 | Cc1c(C(F)(F)F)nnc(Oc2ccc(OC(C)C)c(F)c2F)c1C(=O)Nc1cccc(S(C)(=N)=O)c1 (single isomer, unassigned) [Compound 1502, 3-(2,3-difluoro-4-isopropoxyphenoxy)-5-methyl-N-(3-(S-methylsulfonimidoyl)phenyl)-6-(trifluoromethyl)pyridazine-4-carboxamide]
33 | ≤ 20 | ≤ 20 | Cc1cc(F)ccc1Oc1ncc(Br)c(C)c1C(=O)Nc1cccc([S@](C)(=N)=O)c1 [Compound 1731, (R)-5-bromo-2-(4-fluoro-2-methylphenoxy)-4-methyl-N-(3-(S-methylsulfonimidoyl)phenyl)nicotinamide]
34 | ≤ 20 | ≤ 20 | COc1cc(C#N)ccc1Oc1ncc(C(F)(F)F)cc1C(=O)Nc1cccc(S(C)(=N)=O)c1 (stereo not shown) [Compound 1562, 2-(4-cyano-2-methoxyphenoxy)-N-{3-[imino(methyl)oxo-λ^6-sulfanyl]phenyl}-5-(trifluoromethyl)pyridine-3-carboxamide]
35 | ≤ 20 | ≤ 20 | COc1cc(C#N)ccc1Oc1nnc(-c2nccs2)c(C)c1C(=O)Nc1cccc(S(C)(=N)=O)c1 (stereo not shown) [Compound 1463, 3-(4-cyano-2-methoxy-phenoxy)-5-methyl-N-[3-(methylsulfonimidoyl)phenyl]-6-thiazol-2-yl-pyridazine-4-carboxamide]
36 | ≤ 20 | ≤ 20 | COc1ccc(Oc2nnc(C(F)(F)F)c(C)c2C(=O)Nc2cccc(S(C)(=N)=O)c2)c(C)c1F (stereo not shown) [Compound 1504, 3-(3-fluoro-4-methoxy-2-methylphenoxy)-N-{3-[imino(methyl)oxo-λ^6-sulfanyl]phenyl}-5-methyl-6-(trifluoromethyl)pyridazine-4-carboxamide]
37 | ≤ 20 | ≤ 20 | Cc1c(C(F)(F)F)nnc(Oc2ccc(OC(F)(F)F)c(F)c2F)c1C(=O)Nc1cccc(S(C)(=N)=O)c1 (single isomer, unassigned) [Compound 1477, 3-[2,3-difluoro-4-(trifluoromethoxy)phenoxy]-5-methyl-N-[3-(methylsulfonimidoyl)phenyl]-6-(trifluoromethyl)pyridazine-4-carboxamide]
38 | ≤ 20 | ≤ 20 | Cc1c(Oc2ncc(C(F)(F)F)cc2C(=O)Nc2cccc(S(C)(=N)=O)c2)ccc(OC(F)(F)F)c1F (stereo not shown) [Compound 1712]
